Source: publication PMC12692346, “Imidazolinium-Based NHC–Metal Complexes Overcome Both Cancer Multidrug Resistance and Cisplatin Resistance In Vitro” (International Journal of Molecular Sciences, 2025)

Key:
Mes-Sa/B1 mOrange = assay: Triple coculture fluorescence cytotoxicity test, ABCB1-transfected MDR line; format: cell-based, human; conditions: for RR_B1 resistance ratio (IC50_MDR line / IC50_parental line) of Mes-Sa/B1: Mes-Sa/B1 vs Mes-Sa; for IC50: triple coculture, 144 h incubation, fluorescence readout
Procedure: (§1) All synthesized complexes and representatives of the respective ligands (Lb, Lc, SIPr, IPr) were tested in a triple coculture of uterine sarcoma cell lines, consisting of the parental Mes-Sa cell line, and its MDR derivatives Mes-Sa/B1 and Mes-Sa/Dx5, transfected or selected in doxorubicin to overexpress P-glycoprotein, respectively (Figure 2a–c, Table S2). Each cell line expresses a distinct fluorescent protein (mCherry, mOrange, and eGFP, respectively), and the total fluorescence of a well is proportional to the cell number, allowing the assessment of compound cytotoxicity.
(§2) In a triple coculture system, cell lines expressing different fluorescent proteins were seeded in the same well. Cell lines (Mes-Sa mCherry, Mes-Sa/B1 mOrange, Mes-Sa/Dx5 eGFP [25]) were admixed and seeded on 384-well plates at a density of 3 × 800 cells/well (1:1:1 ratio), resulting in an overall total of 2400 cells. The next day, serially diluted compounds were added to the wells. Liquid handling was managed by a Hamilton StarLet pipetting robot. After 144 h of incubation, the fluorescence of mCherry (ex/em: 585/610 nm), mOrange (ex/em: 545/567 nm) and eGFP (ex/em: 485/510 nm) was recorded with an EnSpire plate reader (PerkinElmer, Waltham, MA, USA).
(§3) pIC50 values derived from both co- and monoculture systems were determined by a custom program written in C# [25], then average and standard deviations were calculated and transformed to IC50 values. Every compound was tested in at least 3 independent experiments in triplicates.

[1] = tested on: Mes-Sa mCherry uterine sarcoma cell line; assay: Triple coculture fluorescence cytotoxicity test, parental line; format: cell-based, human; conditions: 144 h incubation, fluorescence readout
Procedure: as §1, §2, §3

[2] = tested on: CST murine breast cancer cell line; assay: Monoculture PrestoBlue cytotoxicity test, CST; format: cell-based, mouse; conditions: 120 h exposure
Procedure: (§4) CST, a drug-naïve murine breast cancer cell line, and cisplatin-resistant cells CST-2/3 were seeded in monoculture into 384-well plates (Corning Inc., Corning, NY, USA) at a density of 2500 cells per well using automated liquid-handling. The cells were preincubated for 24 h to ensure adherence, followed by the addition of serially diluted compounds to a final well volume of 60 µL. Following 120 h of continuous drug exposure, cell viability was quantified using the PrestoBlue viability assay (Thermo Fisher Scientific, Waltham, MA, USA) after 1 h incubation at 555 nm excitation and 585 nm emission wavelengths.
as §3

[3] = tested on: CST-2/3 cisplatin-resistant cells; assay: Monoculture PrestoBlue cytotoxicity test, cisplatin-resistant CST-2/3; format: cell-based, mouse; conditions: for RR_CST resistance ratio (IC50_CST-2/3 / IC50_CST): CST-2/3 vs CST; for IC50: monoculture, 120 h exposure, PrestoBlue
Procedure: as §4, §3

Mes-Sa/Dx5 eGFP = assay: Triple coculture fluorescence cytotoxicity test, doxorubicin-selected MDR line; format: cell-based, human; conditions: for RR_Dx5 resistance ratio (IC50_MDR line / IC50_parental line) of Mes-Sa/Dx5: Mes-Sa/Dx5 vs Mes-Sa; for IC50: triple coculture, 144 h incubation, fluorescence readout
Procedure: as §1, §2, §3

[4] = tested on: MSCL-1 mesenchymal stem cell-like cell line; assay: PrestoBlue cytotoxicity test, non-malignant MSCL-1; format: cell-based, human; conditions: for IC50: 72 h treatment, PrestoBlue; for MSCL-1 / CST ratio (IC50_MSCL-1/IC50_cancer line): MSCL-1 vs CST; for MSCL-1 / Mes-Sa ratio (IC50_MSCL-1/IC50_cancer line): MSCL-1 vs Mes-Sa
Procedure: The MSCL-1 line was seeded on 96-well plates with 15,000 cells/well density, and the following day, it was treated with the compounds for 72 h, when cell viability was assessed using a PrestoBlue viability assay.
as §3

Mes-Sa cells = assay: H2DCFDA intracellular ROS assay in Mes-Sa; format: cell-based, human; conditions: 25 µM, 4 h incubation, vs 0 h
Procedure: (§5) Intracellular ROS production was assessed by the H2DCFDA—Cellular ROS Assay Kit (ab113851, Abcam, Cambridge, UK) according to the manufacturer’s instructions. Briefly, 20,000 cells (Mes-Sa and CST) were seeded on 96-well plates 1 day prior to the experiment. The cells were washed and incubated with H2DCFDA solution for 45 min in the dark. Following an additional washing step, test compounds were added in complete, phenol red free medium (FluoroBrite™, Thermo Fisher Scientific), at a final concentration of 25 µM. Fluorescence of 2′,7′-dichlorofluorescein (DCF) was measured at 484 nm/535 nm excitation/emission wavelengths. Data were normalized to baseline (0 h) values and represent at least three independent experiments.

CST cells = assay: H2DCFDA intracellular ROS assay in CST; format: cell-based, mouse; conditions: 25 µM, 4 h incubation, vs 0 h
Procedure: as §5

Compound | RR_B1 resistance ratio (IC50_MDR line / IC50_parental line) of Mes-Sa/B1 (Mes-Sa/B1 mOrange) | IC50 (Mes-Sa/B1 mOrange) | IC50 [1] | IC50 [2] | RR_CST resistance ratio (IC50_CST-2/3 / IC50_CST) [3] | IC50 [3] | RR_Dx5 resistance ratio (IC50_MDR line / IC50_parental line) of Mes-Sa/Dx5 (Mes-Sa/Dx5 eGFP) | IC50 (Mes-Sa/Dx5 eGFP) | other results
CC(C)c1cccc(C(C)C)c1N1[CH]([Cu][Cl])N([C@@H](C)c2ccccc2)C[C@@H]1C(C)(C)C (some centres unmarked) [Compound 1b] | 4.9 | 8.51 µM | 1740 nM | 2810 nM | 1.8 | 4920 nM | 1.3 | 2.32 µM | RR_B1 resistance ratio (IC50_MDR line / IC50_parental line) of Mes-Sa/B1 (Mes-Sa/B1 mOrange; listed as 1b*): 7.0; IC50 (Mes-Sa/B1 mOrange; listed as 1b*): 5.25 µM; IC50 ([1]; listed as 1b*): 750 nM; RR_Dx5 resistance ratio (IC50_MDR line / IC50_parental line) of Mes-Sa/Dx5 (Mes-Sa/Dx5 eGFP; listed as 1b*): 1.9; IC50 (Mes-Sa/Dx5 eGFP; listed as 1b*): 1.46 µM
CC(C)c1cccc(C(C)C)c1N1[C](=[Au][Cl])N([C@@H](C)c2ccccc2)C[C@@H]1C(C)(C)C [Compound 3b] | 2.4 | 14.8 µM | 6170 nM | 22900 nM | 1.1 | 25100 nM | 1.6 | 9.92 µM | –
CC(C)c1cccc(C(C)C)c1N1CCN(c2c(C(C)C)cccc2C(C)C)[C]1=[Cu][Cl] [Compound 5a] | 1.0 | 0.44 µM | 420 nM | 180 nM | 1.5 | 270 nM | 1.0 | 0.43 µM | IC50 [4]: 1150 nM; MSCL-1 / CST ratio (IC50_MSCL-1/IC50_cancer line) [4]: 6.5; MSCL-1 / Mes-Sa ratio (IC50_MSCL-1/IC50_cancer line) [4]: 2.7; increase in intracellular ROS (Mes-Sa cells): 72%; increase in intracellular ROS (CST cells): 88%
N.N.[Cl][Pt][Cl] [Cisplatin] | 0.8 | 2.13 µM | 2520 nM | 150 nM | 5.5 | 820 nM | 2.3 | 5.91 µM | IC50 [4]: 17000 nM; MSCL-1 / CST ratio (IC50_MSCL-1/IC50_cancer line) [4]: 113.6; MSCL-1 / Mes-Sa ratio (IC50_MSCL-1/IC50_cancer line) [4]: 6.8
C=C[CH2][Pd]([Cl])=[C]1N([C@H](C)c2ccccc2)C[C@H](C(C)(C)C)N1c1c(C(C)C)cccc1C(C)C [Compound 4c] | 2.4 | 5.62 µM | 2340 nM | 1100 nM | 1.2 | 1350 nM | 4.3 | 10.1 µM | –
CC(C)c1cccc(C(C)C)c1N1[C](=[Au][Cl])N([C@@H](C)c2cccc3ccccc23)C[C@@H]1C(C)(C)C [Compound 3d] | 2.8 | 21.9 µM | 7810 nM | 6170 nM | 1.4 | 8380 nM | 2.5 | 19.4 µM | –
CC(C)c1cccc(C(C)C)c1N1[C](=[Ag][Cl])N([C@@H](C)c2ccccc2)C[C@@H]1C(C)(C)C [Compound 2b] | 19.1 | 14.3 µM | 750 nM | 1010 nM | 2.2 | 2170 nM | 7.3 | 5.5 µM | –
C=C[CH2][Pd]([Cl])=[C]1N(c2c(C(C)C)cccc2C(C)C)CCN1c1c(C(C)C)cccc1C(C)C [Compound 8a] | 2.0 | 5.25 µM | 2680 nM | 1520 nM | 1.3 | 2000 nM | 2.2 | 5.96 µM | IC50 [4]: 2980 nM; MSCL-1 / CST ratio (IC50_MSCL-1/IC50_cancer line) [4]: 2.0; MSCL-1 / Mes-Sa ratio (IC50_MSCL-1/IC50_cancer line) [4]: 1.1
CC(C)c1cccc(C(C)C)c1N1C=[N+]([C@@H](C)c2ccccc2)C[C@@H]1C(C)(C)C [Lb] | 22.7 | – | – | – | 2.0 | – | 26.1 | – | IC50 (Mes-Sa/B1 mOrange; Homo sapiens, MES-SA): 41.7 µM; IC50 ([1]; Homo sapiens, MES-SA): 1830 nM; IC50 ([2]; Mus musculus): 4950 nM; IC50 ([3]; Mus musculus): 9690 nM; IC50 (Mes-Sa/Dx5 eGFP; Homo sapiens, MES-SA/Dx5): 47.9 µM
CC(C)c1cccc(C(C)C)c1N1[C](=[Cu][Cl])N([C@@H](C)c2cccc3ccccc23)C[C@@H]1C(C)(C)C [Compound 1d] | 9.8 | 4.94 µM | 510 nM | 1380 nM | 1.3 | 1820 nM | 3.4 | 1.74 µM | –
CC(C)c1cccc(C(C)C)c1N1[C](=[Ag][Cl])N([C@H](C)c2ccc3ccccc3c2)C[C@@H]1C(C)(C)C [Compound 2e] | 7.9 | 7.37 µM | 930 nM | 1280 nM | 1.5 | 1980 nM | 5.6 | 5.25 µM | –
